According to patent US5444077A, “Ameliorant of cerebral circulation and optical isomer of NB-818, processes for its use” (Banyu Pharmaceutical Co., Ltd., priority 1987, dated 1995):

Tests used:
[1] = Acute toxicity (LD50) upon oral administration to rats; settings: rat, in vivo
From the text: Thus, it is particularly advantageous for the treatment and prevention of the above diseases, for which continuous administration for a long period of time is obliged. Thus, its value as a pharmaceutical is very high.

vertebral artery = assay: Effect to increase the blood flow of the vertebral artery in anesthetized beagle dogs (Pharmacological Test Example 1); format: in vivo, beagle dog
Protocol: Effect to increase the blood flow of the vertebral artery
A male or female beagle dog having a body weight of about 10 kg was anesthetized by subcutaneous administration of 35 mg/kg of sodium pentobarbital, and the level of anesthesia was maintained by continuous injection of from 4 to 6 mg/kg/hr of sodium pentobarbital.
The test was conducted by maintaining the blood gases under optimum conditions under artificial respiration. A drug was dissolved in a 0.9 wt % saline containing 10% by weight of polyethylene glycol and 10% by weight of ethanol, and a predetermined amount of the solution was intravenously or intraduodenally injected to the beagle dog. Then, the blood flow, the blood pressure and the heart rate were measured.
The blood flow was measured by an electromagnetic flow meter by means of blood flow probes attached to the vertebral artery and the femoral artery of the beagle dog. The blood pressure was measured by a pressure transducer connected to a canule inserted to the left femoral artery of the beagle dog.

[2] = tested on: cerebral regional blood flow; assay: Effect to increase the cerebral regional blood flow in rabbits (Pharmacological Test Example 2); format: in vivo, rabbit; settings: 0.01 mg/kg, intravenous
Protocol: A male rabbit having a body weight of about 3 kg was immobilized by intravenous injection of gallamine (2-3 mg/kg) and secured to an apparatus for fixing the brain position. Then, platinum electrodes for measuring hydrogen gas clearance were inserted to the top of cerebral cortex, to the center of the cerebellum and to the femoral muscle, and the blood flows were measured. The drug was dissolved in a 0.9 wt % saline containing 10% by weight of polyethylene glycol and 10% by weight of ethanol, and the solution was intravenously injected.

[3] = tested on: cerebral regional blood flow; assay: Effect to increase the cerebral regional blood flow in monkeys (Pharmacological Test Example 3); format: in vivo, Rhesus monkey; settings: 0.01 mg/kg, intravenous
Protocol: Effect to increase the cerebral regional blood flow in monkeys
A male Rhesus monkey having a body weight of from 5.0 to 11.0 kg was anesthetized with ketamine hydrochloride (1 mg/kg by intravenous injection) and sodium pentobarbital (30 mg/kg by intraperitoneal injection), and an endotracheal tube was inserted for artificial respiration. Then, the animal's head was fixed to a stereotaxic apparatus. The cerebral blood flow was calculated from the hydrogen gas clearance curve measured by means of needle type electrodes for hydrogen gas clearance inserted to the cerebral cortex after incising the head and boring a hole in the occipital lobe.
The drug was dissolved in a 0.9 wt % saline containing 10% by weight of polyethylene glycol 300 and 10% by weight of ethanol, and the solution was intravenously administered.

[4] = tested on: cerebral isochemia models of Mongolian gerbils; assay: Effect to prolong the life in the cerebral ischemia models of Mongolian gerbils (Pharmacological Test Example 4); format: in vivo, Mongolian gerbil; settings: 0.01 mg/kg, intraperitoneal; control 100
Protocol: Effect to prolong the life in the cerebral isochemia models of Mongolian gerbils
A male Mongolian gerbil having a body weight of about 70 g was anesthetized by intraperitoneal administration of 70 mg/kg of ketamine hydrochloride. Then, left and right common carotid arteries were exposed and closed by scorbil clips for 20 minutes. Then, the clips were removed to regain the blood flow. Thirty minutes later, a drug dissolved in a 0.9 wt % saline containing 10% by weight of polyethylene glycol 300 and 10% by weight of ethanol, was intraperitoneally administered. The effect to prolong the life was determined by observing mortality and the neurotic symptom during 8 hours or 24 hours from the administration of the drug.

amnesia induced by ECS [5] = assay: Effect against amnesia induced by ECS, passive avoidance, pretreatment with drug administration (Pharmacological Test Example 5); format: in vivo, rat; settings: 3 mg/kg p.o.
From the text: (§1) By using male rats having a body weight of about 200 g, the antiamnesic effect was examined on the basis of one trial passive avoidance reaction as an index. Namely, a rat is put in a light chamber of an operant box comprising the light chamber and a dark chamber, and when the rat entered into the dark chamber, an electric stimulation (5 mA for 10 seconds) was applied from the floor and immediately an electric shock (30 mA, 0.75 second) (hereinafter referred to simply as ECS) was applied to the head of the rat. Two hours or 24 hours after the ECS, the rat was put in the light chamber, and the time until the rat entered from the light chamber to the dark chamber (the latent reaction time) was measured,
The drug was suspended in a 0.5 wt % methyl cellulose and orally administered three times at intervals of 24 hours so that the final administration was conducted one hour prior to ECS.

amnesia induced by ECS [6] = assay: Effect against amnesia induced by ECS, passive avoidance, post-treatment with drug administration (Pharmacological Test Example 5); format: in vivo, rat; settings: 1 mg/kg p.o.
From the text: as §1
In a separate test, the drug was orally administered at the same time as ECS, and the latent reaction time was measured two hours later, or NB-818 was again administered 22 hours later and then the latent reaction time was measured two hours later.

Q: What does the source list for `COC(=O)C1=C(C)NC(COC(N)=O)=C(C(=O)OC(C)C)C1c1cccc(Cl)c1Cl` (centres unmarked) [NB-818, 2-Carbamoyloxymethyl-4-(2,3-dichlorophenyl)-6-methyl-1,4-dihydropyridine-3,5-dicarboxylic acid 3-isopropyl ester 5-methyl ester]?
A: LD50 [1]: ≥ 3000 mg/kg; Change in blood pressure (vertebral artery; 0.01 mg/kg iv): -14%; Change in femoral artery blood flow (vertebral artery; 0.01 mg/kg iv): +12%; Change in vertebral artery blood flow (vertebral artery; 0.01 mg/kg iv): +109%; Effective period (Half-life period) (vertebral artery; 0.01 mg/kg iv): 57 min; Change in blood pressure (vertebral artery; 0.1 mg/kg id (intraduodenal)): -18%; Change in femoral artery blood flow (vertebral artery; 0.1 mg/kg id (intraduodenal)): +36%; Change in vertebral artery blood flow (vertebral artery; 0.1 mg/kg id (intraduodenal)): +135%; Effective period (Half-life period) (vertebral artery; 0.1 mg/kg id (intraduodenal)): > 300 min; influence over the blood pressure and the heart rate (vertebral artery; at dose level selectively increasing vertebral artery blood flow): minimum; Blood flow change, cerebellum blood flow [2]: +85%; Blood flow change, cerebral blood flow [2]: +82%; Blood flow change, femoral muscle blood flow [2]: +3%; Effective period (Half-life period) [2]: 44.6 min; Change in blood pressure [3]: -20%; Change in cerebral cortex blood flow [3]: +28%; Change in heart rate [3]: +16%; Effective period (Half-life period) [3]: > 60 min; Mortality, 0-8 hours [4]: 38.5%; Mortality, 0-24 hours [4]: 76.9%; Latent reaction time, acquisition test (amnesia induced by ECS [5]; control 8.6 ± 1.3): 11.4 ± 1.3 s; Latent reaction time, 2 hours later (amnesia induced by ECS [5]; control 49.2 ± 8.1, * P < 0.05 vs control): 128.8 ± 21.8 s; Latent reaction time, 24 hours later (amnesia induced by ECS [5]; control 85.6 ± 22.0, * P < 0.05 vs control): 189.6 ± 24.6 s; Latent reaction time, acquisition test (amnesia induced by ECS [6]; control 9.0 ± 1.5): 8.3 ± 1.2 s; Latent reaction time, 2 hours later (amnesia induced by ECS [6]; control 30.6 ± 3.0, * P < 0.05 vs control): 88.5 ± 17.9 s; Latent reaction time, 24 hours later (amnesia induced by ECS [6]; control 42.5 ± 9.0, * P < 0.05 vs control): 111.8 ± 21.5 s
